Assay results as given in article doi:10.1101/2020.04.28.066902v2 (bioRxiv, 2020).
Entries after “also recorded” stand apart in the source; their conditions may differ.

Assay: Equilibrium peptide uptake in human OA cartilage explants
Assay type: in vitro ADME

## RKKRRQRRR [TAT-PTD]
500 mM NaCl added to the PBS, p=0.3, n=24
  partitioning coefficient with 500 mM NaCl vs untreated cartilage: not
Cartilage degraded in 5 mM trypsin for 24 hours prior to uptake, p=0.045, n=24
  partitioning coefficient after trypsin treatment vs untreated cartilage: reduced; also recorded: decreased partitioning coefficients; also recorded: decreased uptake
